The results in this text go back to patent US20090088461A1, “Methods of Treating or Preventing Cardiac Disease Associated With a High Fat Diet” (Synvista Therapeutics, Inc., priority 2007, published 2009).

Values joined by “and” are separate entries in the source; they are usually repeats but may differ in a detail not shown here. Identical values can stand only once. Like-named read-outs stand apart in the source and are kept apart here.

In data set [1] the target is T1, AGE-BSA previously crosslinked to the collagen (Bos taurus, UniProt P02769).
T1 construct: Bovine Serum Albumin (Type V), (BSA) Calbiochem; purchased Calbiochem (BSA Type V); Collaborative Biomedical Products (Biocoat collagen plates)
T1 sequence (P02769 25-607): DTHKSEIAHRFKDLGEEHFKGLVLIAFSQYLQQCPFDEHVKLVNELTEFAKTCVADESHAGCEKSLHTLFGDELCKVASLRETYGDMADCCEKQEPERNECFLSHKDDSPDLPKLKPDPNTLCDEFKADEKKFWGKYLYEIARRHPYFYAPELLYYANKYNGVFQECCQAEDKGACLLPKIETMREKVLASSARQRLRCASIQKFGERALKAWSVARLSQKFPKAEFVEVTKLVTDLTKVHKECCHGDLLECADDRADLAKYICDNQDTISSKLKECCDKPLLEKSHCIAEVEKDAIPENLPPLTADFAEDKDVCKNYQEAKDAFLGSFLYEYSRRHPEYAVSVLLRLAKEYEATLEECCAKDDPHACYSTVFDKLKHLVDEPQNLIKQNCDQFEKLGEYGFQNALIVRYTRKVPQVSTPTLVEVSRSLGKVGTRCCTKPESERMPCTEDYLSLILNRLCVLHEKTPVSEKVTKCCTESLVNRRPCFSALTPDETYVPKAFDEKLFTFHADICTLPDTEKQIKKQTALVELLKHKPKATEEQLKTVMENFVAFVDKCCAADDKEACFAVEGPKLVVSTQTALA
T1 sequence (P02454 152-1207 partner limits assumed): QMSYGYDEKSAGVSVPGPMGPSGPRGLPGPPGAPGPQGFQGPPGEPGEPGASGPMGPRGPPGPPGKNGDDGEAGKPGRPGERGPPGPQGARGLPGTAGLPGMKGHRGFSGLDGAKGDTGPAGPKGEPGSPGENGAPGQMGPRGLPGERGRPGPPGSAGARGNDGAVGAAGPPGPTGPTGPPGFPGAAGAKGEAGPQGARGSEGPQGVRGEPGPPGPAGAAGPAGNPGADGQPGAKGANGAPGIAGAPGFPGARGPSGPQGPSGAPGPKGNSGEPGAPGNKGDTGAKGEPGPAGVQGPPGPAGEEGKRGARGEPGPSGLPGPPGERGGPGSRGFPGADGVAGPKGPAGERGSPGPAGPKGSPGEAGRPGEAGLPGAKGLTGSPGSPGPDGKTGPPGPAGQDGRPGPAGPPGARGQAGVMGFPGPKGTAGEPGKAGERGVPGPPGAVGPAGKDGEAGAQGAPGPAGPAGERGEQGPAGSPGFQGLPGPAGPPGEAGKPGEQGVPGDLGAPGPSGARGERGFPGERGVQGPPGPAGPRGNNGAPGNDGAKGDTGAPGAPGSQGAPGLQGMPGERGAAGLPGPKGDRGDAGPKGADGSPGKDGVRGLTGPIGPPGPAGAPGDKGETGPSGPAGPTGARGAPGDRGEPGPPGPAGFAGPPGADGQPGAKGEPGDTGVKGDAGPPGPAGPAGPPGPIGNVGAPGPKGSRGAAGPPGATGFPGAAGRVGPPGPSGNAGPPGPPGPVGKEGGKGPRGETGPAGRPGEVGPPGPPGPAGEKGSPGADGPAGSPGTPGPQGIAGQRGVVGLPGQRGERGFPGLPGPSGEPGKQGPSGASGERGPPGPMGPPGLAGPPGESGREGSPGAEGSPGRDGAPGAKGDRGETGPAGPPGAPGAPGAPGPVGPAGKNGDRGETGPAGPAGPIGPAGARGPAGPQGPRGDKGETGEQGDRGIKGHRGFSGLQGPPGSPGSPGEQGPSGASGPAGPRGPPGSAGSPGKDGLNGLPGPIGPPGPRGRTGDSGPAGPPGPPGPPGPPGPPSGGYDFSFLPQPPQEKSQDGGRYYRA
T1 sequence (P02466 86-1125 partner limits assumed): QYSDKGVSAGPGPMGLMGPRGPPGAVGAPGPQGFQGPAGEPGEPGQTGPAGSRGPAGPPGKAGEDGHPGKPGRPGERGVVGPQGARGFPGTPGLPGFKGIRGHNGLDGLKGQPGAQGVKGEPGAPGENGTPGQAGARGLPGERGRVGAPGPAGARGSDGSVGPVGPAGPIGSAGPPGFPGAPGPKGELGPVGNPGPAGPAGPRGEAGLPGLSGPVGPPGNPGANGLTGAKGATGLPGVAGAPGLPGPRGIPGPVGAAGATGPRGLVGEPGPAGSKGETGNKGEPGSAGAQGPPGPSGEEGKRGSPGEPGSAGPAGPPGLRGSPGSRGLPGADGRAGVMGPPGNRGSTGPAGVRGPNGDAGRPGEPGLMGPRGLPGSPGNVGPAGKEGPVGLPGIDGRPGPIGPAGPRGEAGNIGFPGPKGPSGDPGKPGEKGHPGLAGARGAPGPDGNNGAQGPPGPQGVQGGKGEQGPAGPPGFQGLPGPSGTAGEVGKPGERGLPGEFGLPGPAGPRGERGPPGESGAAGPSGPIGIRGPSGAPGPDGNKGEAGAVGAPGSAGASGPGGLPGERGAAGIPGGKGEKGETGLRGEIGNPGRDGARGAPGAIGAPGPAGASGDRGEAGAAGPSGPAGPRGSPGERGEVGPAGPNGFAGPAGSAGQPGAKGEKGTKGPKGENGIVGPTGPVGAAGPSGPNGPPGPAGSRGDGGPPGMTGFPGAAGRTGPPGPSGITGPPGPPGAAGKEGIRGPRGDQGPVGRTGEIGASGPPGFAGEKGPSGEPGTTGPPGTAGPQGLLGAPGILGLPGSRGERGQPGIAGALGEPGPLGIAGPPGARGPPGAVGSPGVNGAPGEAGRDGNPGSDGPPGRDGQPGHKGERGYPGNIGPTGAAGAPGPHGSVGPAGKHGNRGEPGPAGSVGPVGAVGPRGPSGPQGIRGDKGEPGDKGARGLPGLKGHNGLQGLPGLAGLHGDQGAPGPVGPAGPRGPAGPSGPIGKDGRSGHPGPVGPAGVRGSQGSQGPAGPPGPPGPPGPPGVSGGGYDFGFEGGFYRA
The experiment in a line: Cross-Link Breaking Assay (sandwich enzyme immunoassay). The format is biochemical. Conditions: for Breaking Anti-AGE: anti-AGE antibody; for Breaking Anti-BSA: anti-BSA antibody. Here is the method: The present invention also involves a novel sandwich enzyme immunoassay used to ascertain the ability of test compounds to “break” or reverse already formed advanced glycosylation endproducts by detecting the breaking of AGE (Advanced glycosylation endproduct) moieties from AGE-crosslinked protein. This assay comprises:
a) incubation of AGE-modified bovine serum albumin (AGE BSA) on collagen-coated wells of microtiter plates for a period of 2-6 hours' at a temperature of 37° C.
b) washing of the wells with PBS-Tween;
c) application of the test compounds to the washed wells of step b;
d) incubation of the test compounds applied to the washed wells for an additional 12-24 hours at a temperature of about 37° C.; and
e) detection of the AGE-breaking using an antibody raised against AGE-ribonuclease or cross-link breaking with an antibody against BSA.
In order to ascertain the ability of the compounds of the instant invention to “break” or reverse already formed advanced glycosylation endproducts, a novel sandwich enzyme immunoassay was developed which detects breaking of AGE (Advanced glycosylation endproduct) moieties from AGE-crosslinked protein. The assay utilizes collagen-coated 96 well microtiter plates that are obtained commercially. […] Following an incubation period of 16 hours (37° C.) cross-link-breaking is detected using an antibody raised against AGE-ribonuclease or with an antibody against BSA. […] Details of the assay are as follows:
1. AGE-BSA stock solutions were prepared as follows. Sodium phosphate buffer (0.4 M) was prepared by dissolving 6 grams of monobasic sodium phosphate in 100 ml of distilled water, 7 grams of dibasic sodium phosphate (0.4 M) in 100 ml of distilled water and adjusting the pH of the dibasic solution to 7.4 with the monobasic solution. Sodium azide (0.02 grams) was added per 100 ml volume to inhibit bacterial growth. The BSA solution was prepared as follows: 400 mg of Type V BSA (bovine serum albumin) was added for each ml of sodium phosphate buffer (above). A 400 mM glucose solution was prepared by dissolving 7.2 grams of dextrose in 100 ml of sodium phosphate buffer (above). The BSA and glucose solutions were mixed 1:1 and incubated at 37° C. for 12 weeks. The pH of the incubation mixture was monitored weekly and adjusted to pH 7.4 if necessary. After 12 weeks, the AGE-BSA solution was dialyzed against PBS for 48 hours with four buffer changes, each at a 1:500 ratio of solution to dialysis buffer. Protein concentration was determined by the micro-Lowry method. The AGE-BSA stock solution was aliquoted and stored at −20° C.
2. Working solutions for crosslinking and breaking studies were prepared as follows. Test compounds were dissolved in PBS and the pH was adjusted to pH 7.4 if necessary. AGE-BSA stock solution was diluted in PBS to measure maximum crosslinking and in the inhibitor solution for testing inhibitory activity of compounds. The concentration of AGE-BSA necessary to achieve the optimum sensitivity was determined by initial titration of each lot of AGE-BSA.
3. Wash buffer (“PBS-Tween”) was, prepared as follows. PBS was prepared by dissolving the following salts in one liter of distilled water: NaCl, 8 grams; KCl, 0.2 gram, KH2PO4. […] Tween-20 was added to a final concentration of 0.05% (vol/vol).
4. Substrates for detection of secondary antibody binding were prepared by diluting the HRP substrate buffer 1:10 in distilled water and mixing with ABTS chromogen 1:50 just prior to use.
1. Biocoat plates were blocked with 300 μl of “Superbloc”. Plates were blocked for one hour at room temperature and were washed with PBS-Tween three times with the Dynatech platewasher before addition of test reagents.
2. Each experiment was set up in the following manner. The first three wells of the Biocoat plate were used for the reagent blank. Fifty microliters of solutions AGE-BSA were added to test wells in triplicate and only PBS in blank wells.

In data set [2] the target is cross-linking of glycated bovine serum albumin (AGE-BSA) to the rat tail tendon collagen-coated 96-well plate (Bos taurus, UniProt P02769). The experiment in a line: Cross-Linking Inhibition Assay. Conditions: for inhibition at 10000 µM: read-out: Relative Cross-link Inhibition (at 10 mM).
Chain of cross-linking of glycated bovine serum albumin (AGE-BSA) to the rat tail tendon collagen-coated 96-well plate (P02769 25-607): as the sequence (P02769 25-607) above
Method: The following method was used to evaluate the ability of the compounds of the present invention to inhibit the cross-linking of glycated bovine serum albumin (AGE-BSA) to the rat tail tendon collagen-coated 96-well plate.
The blocking solution was removed from the wells by, washing the plate twice with PBS-'Tween 20 solution (0.05% Tween 20) using a NUNq-multiprobe or Dynatech ELISA-plate washer. Cross-linking of AGE-BSA (1 to 10 mg per well depending on the batch of AGE-BSA) to rat tail tendon collagen coated plate was performed with and without the testing ‘compound dissolved in PBS buffer at pH 7.4 at the desired concentrations by the, addition of 50 μl each of the AGE-BSA diluted in PBS or in the solution of test compound at 37° C. for 4 hours.
Unbrowned BSA in PBS buffer with or without testing compound were added to the separate wells as the blanks. The un-cross-linked AGE-BSA was then removed by washing the wells three times with PBS-Tween buffer. The amount of AGE-BSA cross-linked to the tail tendon collagen-coated plate was then quantitated using a polyclonal antibody raised against AGE-RNase. After a one-hour incubation period, AGE antibody was removed by washing 4 times with PBS-Tween.
The bound AGE antibody was then detected with the addition of horseradish peroxidase-conjugated secondary antibody—goat anti-rabbit immunoglobulin and incubation for 30 minutes. […] The reaction was allowed for an additional 15 minutes and the absorbance was read at 410 nm in a Dynatech plate reader.

Usually IC50 stands for the midpoint of a concentration-inhibition curve. With `Cc1c(CCO)sc[n+]1CC(N)=O.[Br-]` [3-(2-amino-2-oxoethyl)-4-methyl-5-(2-hydroxyethyl)thiazolium bromide], in data set [1] (concentration not given), the “Breaking Anti-AGE” value was 65% and the “Breaking Anti-BSA” value was determined as 57%. In data set [2], this compound showed an IC50 of 1420 µM.

In the case of `CCCCCc1ccc(C(=O)C[n+]2csc(CCO)c2C)cc1.[Br-]` [3-(2-(4′-n-pentylphenyl)-2-oxoethyl]-4-methyl-5-(2′-hydroxyethyl)-thiazolinium], the “Relative Cross-link Inhibition” value in data set [2] (3 mM) is 52% @ 3 mM.

`COC(=O)C[n+]1csc(C)c1C.[Br-]` [3-(2-methoxy-2-oxoethyl)-4,5-dimethylthiazolium bromide]: in data set [1] (at 30 mM), the “Breaking Anti-AGE” value came to 63% and the “Breaking Anti-BSA” value is 47%. In data set [2], this compound had an IC50 of 480 µM.

As for `NC(=O)C[n+]1csc2ccccc21.[Br-]` [3-(2-amino-2-oxoethyl)-benzothiazolium bromide], in data set [1] (concentration not given), the “Breaking Anti-AGE” value is 77% and the “Breaking Anti-BSA” value worked out at 65%. For the same compound, the IC50 in data set [1] (detection with anti-AGE antibody, read-out: IC50 (mM) Anti-AGE) is 0.4 mM. This compound also yielded an IC50 in data set [2] of 20 µM.

`NC(=O)C[n+]1ccsc1` [3-(2-amino-2-oxoethyl)-thiazolium bromide] showed a 50% inhibitory concentration (IC50) in data set [2] of 530 µM.

With `CCOC(=O)c1ccc(NC(=O)C[n+]2csc(CCO)c2C)cc1.[Br-]` [3-(2-4′-carbethoxyanilino)-2-oxoethyl]-4-methyl-5-(2′-hydroxyethyl)-thiazolium bromide], in data set [1] (at 10 mM), the “Breaking Anti-AGE” value is listed as 48% and the “Breaking Anti-BSA” value is reported as 57%. Besides, in data set [2] (1 mM), the “Relative Cross-link Inhibition” value was 8.8% (1 mm).

In the case of `Cc1csc[n+]1CC(N)=O.[Br-]` [3-(2-amino-2-oxoethyl)-4-methyl-thiazolium bromide], in data set [1] (at 30 mM), the “Breaking Anti-AGE” value was 89% and the “Breaking Anti-BSA” value is 44%. The midpoint of inhibition in data set [2], the IC50, lay at 700 µM.

Regarding `C=Cc1sc[n+](CC(=O)c2cc(C(C)(C)C)c(O)c(C(C)(C)C)c2)c1C` [3-(2-(3′,5′-tert-butyl-4′-hydroxyphenyl)-2-oxoethyl)-4-methyl-5-vinyl-thiazolium bromide], in data set [1] (at 0.3 mM), the “Breaking Anti-AGE” value is on record as 32% and the “Breaking Anti-BSA” value turned out to be 50%. The “IC50 (mM) Anti-BSA” value in data set [1] (detection with anti-BSA antibody) is listed as “ND/0/60%”.

What is called inhibition is the percentage by which the read-out fell short of the control. Regarding `COC(=O)C[n+]1cscc1C.[Br-]` [3-(2-methoxy-2-oxoethyl)-4-methylthiazolium bromide], in data set [1] (at 30 mM), the “Breaking Anti-AGE” value was found to be 54% and the “Breaking Anti-BSA” value amounted to 51%. In addition, the inhibition at 10000 µM in data set [2] was determined as 58%.

As for `Cc1sc[n+](CC(=O)c2ccccc2)c1C.[Br-]` [3-(2-phenyl-2-oxoethyl)-4,5-dimethylthiazolium bromide], in data set [1] (at 30 mM), the “Breaking Anti-AGE” value is recorded as 56%/ND (30). Further, the inhibition at 10000 µM in data set [2] came to 37%.

On to `Nc1sc2ccccc2[n+]1N` [2,3-diaminio-benzothiazolium mesitylenesulfonate], for which, in data set [1] (at 30 mM), the “Breaking Anti-AGE” value is recorded as 87% and the “Breaking Anti-BSA” value is listed as 54%.

Consider `CC(=O)C[n+]1ccsc1.[Cl-]` [3-(2-methyl-2-oxoethyl)thiazolium chloride], for which inhibition in data set [1] (IC50 (mM) Anti-AGE, detection with anti-AGE antibody) was half-maximal at 0.83 mM (IC50). Moreover, the IC50 in data set [1] (IC50 (mM) Anti-BSA, detection with anti-BSA antibody) was determined as 0.75 mM. In data set [1] (concentration not given), the “Breaking Anti-AGE” value was 56% and the “Breaking Anti-BSA” value is listed as 93%.

Regarding `COC(=O)C[n+]1csc(CCO)c1C` [3-(2-methoxy-2-oxoethyl)-4-methyl-5-(2-hydroxyethyl)-thiazolium bromide], the inhibition at 10000 µM in data set [2] was determined as 38%.

As to `Cc1c(CCO)sc[n+]1CC(=O)c1ccc(Br)cc1` [3-(2-(41-bromophenyl]-2-oxoethyl)-4-methyl-5-(2-hydroxyethyl)thiazolium bromide], the IC50 in data set [2] came out at 2950 µM.

With `COc1cccc(C[n+]2csc(CCO)c2C)c1.[Cl-]` [3-(3′-methoxybenzyl)-4-methyl-5-(2′-hydroxyethyl)-thiazolium chloride], in data set [1] (at 10 mM), the “Breaking Anti-AGE” value was 4% and 14%; the “Breaking Anti-BSA” value was 19% and 25%.

For `Nc1ccc2c(c1)sc(N)[n+]2CC(=O)c1ccc(F)cc1.[Br-]` [2,6-diamino-3 (2-(4′-fluorophenyl-2-oxoethyl]benzothiazolium bromide], in data set [1] (at 10 mM), the “Breaking Anti-AGE” value is given as 24% and the “Breaking Anti-BSA” value was determined as 40%.

With `CC(C)(C)C(=O)C[n+]1ccsc1.[Br-]` [3-(2-tert-butyl-2-oxoethyl)-thiazolium bromide], in data set [1] (at 10 mM), the “Breaking Anti-AGE” value turned out to be 28% and the “Breaking Anti-BSA” value is recorded as 37%.

For `Cc1cc(C)c(S(=O)(=O)[O-])c(C)c1.Nc1sc(-c2ccc3c(c2)OCCCO3)c[n+]1N` [2,3-Diamino-5-(3′,4′-trimethylenedioxyphenyl)thiazolium mesitylene sulfonate], in data set [1] (at 1 mM), the “Breaking Anti-AGE” value worked out at 13% and the “Breaking Anti-BSA” value is 42%.

As for “3-(2-(3′-methoxyphenyl]-2-oxoethyl)-thiazolium bromide”, in data set [1] (at 10 mM), the “Breaking Anti-AGE” value amounted to 22% and the “Breaking Anti-BSA” value was 44%.

`Cc1sc[n+](CC(=O)c2cc(C(C)(C)C)c(O)c(C(C)(C)C)c2)c1C` [3-(2-(3′,5′-di-tert-butyl-4′-hydroxypheny].)-2-oxoethyl]-4,5-dimethyl-thiazolium bromide] yielded an IC50 in data set [2] of 160 µM.

On to `Cc1c[n+](CC(=O)c2ccccc2)cs1` [3-(2-phenyl-2-oxoethyl)-5-methyl-thiazolium bromide], for which, in data set [2], 12600 µM corresponded to half-maximal inhibition (IC50).

In the case of `O=C(C[n+]1ccsc1)c1ccc(Br)cc1.[Br-]` [3-(2-(4^1-bromophenyl]-2-oxoethyl)-thiazolium bromide], in data set [1] (at 30 mM), the “Breaking Anti-AGE” value was 76% and the “Breaking Anti-BSA” value is 25%.

Turning to `Nc1ccc2c(c1)sc(N)[n+]2CC(=O)c1ccc(Br)cc1.[Br-]` [2,6-diamino-3 (2-(4′-bromophenyl)-2-oxoethyl]benzothiazolium bromide], in data set [1] (at 10 mM), the “Breaking Anti-AGE” value is reported as 27% and the “Breaking Anti-BSA” value came out at 44%.

Regarding `COc1ccc(C(=O)C[n+]2c(N)sc3cc(N)ccc32)cc1.[Br-]` [2,6-diamino-3 (2-(4′-methoxyphenyl)-2-oxoethyl]benzothiazolium bromide], in data set [1] (at 10 mM), the “Breaking Anti-AGE” value is 29% and the “Breaking Anti-BSA” value was determined as 35%.

On to `Cc1c(CCO)sc[n+]1Cc1ccccc1[N+](=O)[O-].[Br-]` [3-(2′-nitrobenzyl)-4-methyl-5-(2′-hydroxyethyl)-thiazolium bromide], for which, in data set [1] (at 10 mM), the “Breaking Anti-AGE” value is 11% and the “Breaking Anti-BSA” value was 13%.

As for `O=C(C[n+]1ccsc1)c1ccc2c(c1)OCCCO2.[Br-]` [3-(2-(3′,4′-trimethylenedioxyphenyl)-2-oxoethyl]-thiazolium bromide], in data set [1] (at 10 mM), the “Breaking Anti-AGE” value is 17% and the “Breaking Anti-BSA” value worked out at 18%.

For `Cc1c(CCO)sc[n+]1Cc1c(Cl)cccc1Cl.[Cl-]` [3-(2′,6′-dichlorobenzyl)-4-methyl-5-(2′-15 hydroxyethyl)-thiazolium chloride], in data set [1] (at 10 mM), the “Breaking Anti-AGE” value was determined as 6% and the “Breaking Anti-BSA” value is recorded as 27%.

With `Cc1c(CCO)sc[n+]1Cc1ccccc1.[Cl-]` [3-benzyl-5-(2-hydroxyethyl)-4-methyl thiazolium chloride], in data set [1] (at 30 mM), the “Breaking Anti-AGE” value is given as 65% and the “Breaking Anti-BSA” value is on record as 61%.
